Test results reported in patent publication US20170293715A1, “SYSTEMS, METHODS AND SOFTWARE FOR RANKING POTENTIAL GEROPROTECTIVE DRUGS” (Insilico Medicine, Inc., priority 2014, published 2017).
Where “and” joins values, the source holds several entries; their conditions need not be identical. Equal entries are not always repeated.

How the values were obtained:
Type in all cases: cell-based
[1] = tested on: Circadian signaling pathway; assay: PAS score of Circadian pathway in late-passage human fibroblasts cultured with putative geroprotectors; conditions: 48 hours, aged human fibroblasts (aliquot C) vs aliquot A control
Protocol: (§1) PASp=ΣNIInp×ARRnp×BTIFn×lg(CNRn)
(§2) The culture of human fibroblasts was isolated from skin of a healthy adult donor and cultured for five passages in DMEM/F12 medium supplemented by 10% FBS. The tissue sample was obtained with the written consent of a donor according to EU and local ethical guidelines. An aliquot containing ˜10 million cells was frozen in liquid nitrogen (aliquot A), whereas the remaining part of the cell culture was grown for 20 additional passages in the same medium. The cells were then harvested and stored in liquid nitrogen (aliquot B). Aliquot B cells were then cultured for two additional passages and then cultured for 48 hours in the presence of four putative geroprotector drugs. The resulting cells were harvested (aliquot C). The transcriptomes of the aliquots A, B and C were investigated with the Illumina HT12 v4 gene expression microarrays (Illumina, USA). In such a way we profiled expression of the genes implicated in the functioning of the following ten signaling pathways: AHR, AKT, Circadian, DNA repair mechanisms, EGFR, ERK signaling, Estrogen pathway, FLT3, Growth hormone, Hedgehog.
(§3) Zero PAS value means identical signaling pathway activation pattern in the older (aliquots B and C) and younger (aliquot A) fibroblasts.

FLT3 signaling pathway = assay: PAS score of FLT3 pathway in late-passage human fibroblasts cultured with putative geroprotectors; design: unit of the concentration uncertain; conditions: 48 hours, aged human fibroblasts (aliquot C) vs aliquot A control
Protocol: as §1, §2, §3

human skin fibroblasts = assay: Reversion of PAS patterns to the younger state, ranking of geroprotectors
Protocol: (§4) The culture of human fibroblasts was isolated from skin of a healthy adult donor and cultured for five passages in DMEM/F12 medium supplemented by 10% FBS. The tissue sample was obtained with the written consent of a donor according to EU and local ethical guidelines. An aliquot containing ˜10 million cells was frozen in liquid nitrogen (aliquot A), whereas the remaining part of the cell culture was grown for 20 additional passages in the same medium. The cells were then harvested and stored in liquid nitrogen (aliquot B). Aliquot B cells were then cultured for two additional passages and then cultured for 48 hours in the presence of four putative geroprotector drugs. The resulting cells were harvested (aliquot C). […] The information about pathway configuration and functional roles of the individual genes was taken from the public database provided by SABiosciences (SABiosciences, a Qiagen company. Using Student statistical criterion and a threshold p-value <0.05, we identified a list of the differential genes and calculated for them CNRn values. The set of gene expression data corresponding to the “aliquot A” group of samples was taken as the control. The data were processed with the algorithm for the calculation of PAS, and the following pathway activation data were obtained (Table 9). […]

[2] = tested on: Hedgehog signaling pathway; assay: PAS score of Hedgehog pathway in late-passage human fibroblasts cultured with putative geroprotectors; design: unit of the concentration uncertain; conditions: 48 hours, aged human fibroblasts (aliquot C) vs aliquot A control
Protocol: as §1
The culture of human fibroblasts was isolated from skin of a healthy adult donor and cultured for five passages in DMEM/F12 medium supplemented by 10% FBS. The tissue sample was obtained with the written consent of a donor according to EU and local ethical guidelines. An aliquot containing ˜10 million cells was frozen in liquid nitrogen (aliquot A), whereas the remaining part of the cell culture was grown for 20 additional passages in the same medium. The cells were then harvested and stored in liquid nitrogen (aliquot B). Aliquot B cells were then cultured for two additional passages and then cultured for 48 hours in the presence of four putative geroprotector drugs. The resulting cells were harvested (aliquot C). The transcriptomes of the aliquots A, B and C were investigated with the Illumina HT12 v4 gene expression microarrays (Illumina, USA). In such a way we profiled expression of the genes implicated in the functioning of the following ten signaling pathways: AHR, AKT, Circadian, DNA repair mechanisms, EGFR, ERK signaling, Estrogen pathway, FLT3, Growth hormone, Hedgehog. The information about pathway configuration and functional roles of the individual genes was taken from the public database provided by SABiosciences (SABiosciences, a Qiagen company. Using Student statistical criterion and a threshold p-value <0.05, we identified a list of the differential genes and calculated for them CNRn values. The set of gene expression data corresponding to the “aliquot A” group of samples was taken as the control. The data were processed with the algorithm for the calculation of PAS, and the following pathway activation data were obtained (Table 9).
Zero PAS value means identical signaling pathway activation pattern in the older (aliquots B and C) and younger (aliquot A) fibroblasts. […] The present invention proposes ranking of the geroprotector drugs according to their ability to compensate aging-related differences in signaling pathway activation reflected by the PAS values.

DNA repair mechanisms = assay: PAS score of DNA repair pathway in late-passage human fibroblasts cultured with putative geroprotectors; conditions: 1 mM, 48 hours, aged human fibroblasts (aliquot C) vs aliquot A control
Protocol: as §1, §4

AHR signaling pathway = assay: PAS score of AHR pathway in late-passage human fibroblasts cultured with putative geroprotectors; conditions: 48 hours, aged human fibroblasts (aliquot C) vs aliquot A control
Protocol: as §1, §2, §3

[3] = tested on: Growth hormone (GH) signaling pathway; assay: PAS score of Growth hormone pathway in late-passage human fibroblasts cultured with putative geroprotectors; conditions: 1 mM, 48 hours, aged human fibroblasts (aliquot C) vs aliquot A control
Protocol: as §1, §4

Oc1ccc(C=Cc2cc(O)cc(O)c2)cc1 [Resveratrol]
PAS Circadian ([1]; 1 mM): 4
PAS FLT3 (FLT3 signaling pathway; 1 (unit uncertain)): 2
pathways whose PAS patterns were better reverted to the younger state (human skin fibroblasts; 1 mM, of the ten pathways tested): 7/10
ranking as geroprotector among the four tested (human skin fibroblasts; combined experimental and biomathematical system): best putative geroprotector drug
PAS Hedgehog ([2]; 1 (unit uncertain)): 9 and 11

NCCCCNCCCN [Spermidine]
PAS Circadian ([1]; 1 mM): 5 and 8
PAS DNA repair (DNA repair mechanisms): −10
PAS AHR (AHR signaling pathway; 1 mM): 3 and 2
PAS GH [3]: −9
PAS Hedgehog ([2]; 1 (unit uncertain)): 17 and 18

COC[C@H]1OC(=O)c2coc3c2[C@@]1(C)C1=C(C3=O)[C@@H]2CCC(=O)[C@@]2(C)C[C@H]1OC(C)=O [Wortmannin]
PAS Circadian ([1]; 0.5 mM): 6 and 5
PAS AHR (AHR signaling pathway; 0.5 mM): 1 and 2
PAS Hedgehog ([2]; 0.5 (unit uncertain)): 12 and 10

O=C(O)c1nn(Cc2ccc(Cl)cc2Cl)c2ccccc12 [Lonidamine]
PAS Circadian ([1]; 5 mM): 5 and 7
PAS AHR (AHR signaling pathway; 5 mM): 2 and 4
PAS FLT3 (FLT3 signaling pathway; 5 (unit uncertain)): −1
PAS Hedgehog ([2]; 5 (unit uncertain)): 17 and 22
